Consider one compound from ChEMBL document CHEMBL4831493 (Eur J Med Chem, 2021).

Broadly, the Kp is tissue or fluid exposure divided by exposure in the circulation. The MRT inf is the average time that molecules of a dose stay in the body. The term IC50 denotes the point on the concentration scale where inhibition reaches its midpoint. As a reminder, the AUC(0-inf) is total exposure, with the tail of the curve extrapolated. Low readings indicate low exposure, high ones high exposure. One may read the inhibition as the change of the read-out against control, counted positive when it falls. Read a high inhibition as strong suppression. The Cmax is the highest concentration seen after dosing. What is called Tmax is the time from dosing to the highest level. For orientation: bioavailability means the share of a dose that reaches the circulation, judged against a reference dose that is usually intravenous. Low values mean poor availability, high ones good availability. The half-life is the time needed for the level to fall by half in the phase considered. Lower therefore signals rapid decline.

Active and inactive are the calls of the source.

Data set [1] can be described thus: Ratio of drug level in brain to plasma of ICR mouse at 10 mg/kg, po measured after 1 hr by LC/MS/MS analysis. Type of data set: ADME, organism-based. The settings on record: brain and plasma.
The subject of data set [2] is HT-22. Nature of the data set: Neuroprotective activity in mouse HT-22 cells assessed as glutamate-induced cell mortality at 6 uM preincubated for 1 hr followed by addition of glutamate and measured after 24 hrs (reference value: 58%). It counts as functional. The settings on record: time 25 hrs.
Data set [3] in a line: MRT (0 to infinity) in Sprague-Dawley rat at 1 mg/kg, iv measured up to 24 hrs by LC-MS/MS analysis. It counts as ADME, organism-based. The settings on record: in vivo.
Data set [4] deals with Acetylcholinesterase (Electrophorus electricus, UniProt O42275). Nature of the data set: Inhibition of electric eel recombinant AChE preincubated for 1 min in presence of DNTB followed by addition of acetylthiocholine iodide substrate and measured after 20 mins by Ellman's method.
Acetylcholinesterase (Electrophorus electricus, UniProt O42275), sequence (O42275 whole entry): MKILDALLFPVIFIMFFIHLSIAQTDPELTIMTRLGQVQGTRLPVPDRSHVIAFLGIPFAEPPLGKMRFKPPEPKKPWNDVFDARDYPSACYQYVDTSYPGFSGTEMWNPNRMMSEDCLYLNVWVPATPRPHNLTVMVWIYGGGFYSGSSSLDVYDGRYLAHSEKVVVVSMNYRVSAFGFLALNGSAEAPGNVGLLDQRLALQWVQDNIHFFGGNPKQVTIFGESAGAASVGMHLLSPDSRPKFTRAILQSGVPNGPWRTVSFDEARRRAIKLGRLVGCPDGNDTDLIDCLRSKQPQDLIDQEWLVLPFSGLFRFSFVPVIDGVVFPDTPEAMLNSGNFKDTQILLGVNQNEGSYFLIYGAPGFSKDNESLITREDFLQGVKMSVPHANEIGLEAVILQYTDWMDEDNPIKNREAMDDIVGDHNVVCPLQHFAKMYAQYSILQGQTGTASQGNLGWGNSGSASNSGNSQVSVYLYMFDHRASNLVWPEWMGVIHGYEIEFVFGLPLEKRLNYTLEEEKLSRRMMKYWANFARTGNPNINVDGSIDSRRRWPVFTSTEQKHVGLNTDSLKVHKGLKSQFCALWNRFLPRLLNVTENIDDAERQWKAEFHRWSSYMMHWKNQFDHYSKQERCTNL
For data set [5], the target named is Acetylcholinesterase (Homo sapiens, UniProt P22303). Nature of the data set: Inhibition of human recombinant AChE preincubated for 1 min in presence of DNTB followed by addition of acetylthiocholine iodide substrate and measured after 20 mins by Ellman's method.
Acetylcholinesterase (Homo sapiens, UniProt P22303), sequence (P22303 whole entry): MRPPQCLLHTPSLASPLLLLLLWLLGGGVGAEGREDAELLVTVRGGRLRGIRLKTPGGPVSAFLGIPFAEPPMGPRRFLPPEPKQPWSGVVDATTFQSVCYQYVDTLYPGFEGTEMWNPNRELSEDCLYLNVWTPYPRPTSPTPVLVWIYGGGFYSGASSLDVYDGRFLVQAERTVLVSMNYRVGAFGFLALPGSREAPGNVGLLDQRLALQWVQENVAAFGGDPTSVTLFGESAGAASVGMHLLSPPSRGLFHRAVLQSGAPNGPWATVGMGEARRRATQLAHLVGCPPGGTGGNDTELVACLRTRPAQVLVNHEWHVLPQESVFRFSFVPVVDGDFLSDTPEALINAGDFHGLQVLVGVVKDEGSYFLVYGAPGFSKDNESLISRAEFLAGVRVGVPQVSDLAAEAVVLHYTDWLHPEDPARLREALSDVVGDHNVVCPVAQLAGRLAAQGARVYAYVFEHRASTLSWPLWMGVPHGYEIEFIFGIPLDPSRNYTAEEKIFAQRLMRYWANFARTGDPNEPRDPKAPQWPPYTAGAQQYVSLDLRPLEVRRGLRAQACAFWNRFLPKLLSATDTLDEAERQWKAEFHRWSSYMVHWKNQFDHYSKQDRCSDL
The target in data set [6] is Glycogen synthase kinase-3 beta (Homo sapiens, UniProt P49841). Nature of the data set: Inhibition of human recombinant N-terminal His-tagged GSK3beta expressed in Escherichia coli using RRRPASVPPSPSLS RHS(pS)HQRR as substrate incubated for 30 mins in presence of ATP by Kinase-Glo reagent based luminescence assay. A general note: In Kinase-Glo more light means more ATP remaining.
Glycogen synthase kinase-3 beta, sequence (P49841 whole entry): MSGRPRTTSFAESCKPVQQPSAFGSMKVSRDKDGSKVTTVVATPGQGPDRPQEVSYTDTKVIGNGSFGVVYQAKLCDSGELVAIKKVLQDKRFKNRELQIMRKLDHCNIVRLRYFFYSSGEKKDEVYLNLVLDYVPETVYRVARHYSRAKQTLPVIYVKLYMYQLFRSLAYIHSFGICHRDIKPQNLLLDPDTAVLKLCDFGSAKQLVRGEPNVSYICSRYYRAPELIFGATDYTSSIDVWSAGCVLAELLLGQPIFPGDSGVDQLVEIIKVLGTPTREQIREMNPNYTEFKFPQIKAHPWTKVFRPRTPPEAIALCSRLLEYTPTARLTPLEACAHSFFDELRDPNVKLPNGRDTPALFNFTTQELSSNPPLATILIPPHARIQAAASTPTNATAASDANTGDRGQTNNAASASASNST

The nature of data set [7]: AUC (0 to infinity) in Sprague-Dawley rat at 1 mg/kg, iv measured up to 24 hrs by LC-MS/MS analysis. On the set-up: route intravenous, dose 1 mg/kg, time <=24. It counts as ADME, organism-based. As to conditions: in vivo.
Data set [8] concerns the target T1, Acetylcholinesterase (Mus musculus) (UniProt P21836).
T1 sequence (whole entry): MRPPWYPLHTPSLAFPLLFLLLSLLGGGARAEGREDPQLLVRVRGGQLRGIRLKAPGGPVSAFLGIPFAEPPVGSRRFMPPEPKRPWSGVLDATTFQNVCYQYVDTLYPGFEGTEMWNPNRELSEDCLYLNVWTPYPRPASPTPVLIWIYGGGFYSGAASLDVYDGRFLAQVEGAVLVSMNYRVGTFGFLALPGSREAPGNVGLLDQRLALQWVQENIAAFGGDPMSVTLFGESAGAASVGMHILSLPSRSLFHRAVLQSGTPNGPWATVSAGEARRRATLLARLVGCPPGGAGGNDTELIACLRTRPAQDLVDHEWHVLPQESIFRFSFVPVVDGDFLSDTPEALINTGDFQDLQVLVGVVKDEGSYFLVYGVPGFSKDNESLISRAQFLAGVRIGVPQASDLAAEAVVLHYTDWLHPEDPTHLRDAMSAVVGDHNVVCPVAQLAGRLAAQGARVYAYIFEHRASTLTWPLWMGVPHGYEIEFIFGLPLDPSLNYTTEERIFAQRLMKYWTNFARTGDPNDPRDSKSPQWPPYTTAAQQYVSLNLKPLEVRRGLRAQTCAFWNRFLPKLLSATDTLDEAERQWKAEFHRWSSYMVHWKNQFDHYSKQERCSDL
As to conditions: ICR, dose 10.0 mg/kg, time 1.5 hrs.

Data set [9] in a line: Cmax in Sprague-Dawley rat at 1 mg/kg, iv measured up to 24 hrs by LC-MS/MS analysis. Type of data set: ADME, organism-based. On the set-up: route intravenous, dose 1 mg/kg, time <=24. The settings on record: in vivo.
In data set [10] the test system is Mus musculus. Nature of the data set: Cognitive enhancing effect in mouse model of scopolamine-induced amnesia assessed as decrease in escape latency at 10 mg/kg/day, po measured by Morris water maze test. It counts as functional, organism-based.
Data set [11] is described as follows: Drug level in ICR mouse plasma at 10 mg/kg, po measured after 1.5 hrs by LC/MS/MS analysis. Type of data set: ADME, organism-based.
Data set [12] addresses T1, Acetylcholinesterase (Mus musculus). The settings on record: ICR, dose 10.0 mg/kg, time 1.5 hrs. The source holds these as a separate data set.
Data set [13] in a line: Drug level in ICR mouse brain at 10 mg/kg, po measured after 1 hr by LC/MS/MS analysis. Type of data set: ADME, organism-based. The settings on record: read-out: Ct.
A short description of data set [14]: Tmax in Sprague-Dawley rat at 10 mg/kg, po measured up to 24 hrs by LC-MS/MS analysis. Type of data set: ADME, organism-based. As to conditions: in vivo.
Data set [15] in a line: Drug level in ICR mouse brain at 10 mg/kg, po measured after 1.5 hrs by LC/MS/MS analysis. It counts as ADME, organism-based. As to conditions: read-out: Ct.
A short description of data set [16]: Oral bioavailability in Sprague-Dawley rat at 10 mg/kg measured up to 24 hrs by LC-MS/MS analysis. Type of data set: ADME, organism-based. As to conditions: in vivo.
Data set [17] in a line: Cmax in Sprague-Dawley rat at 10 mg/kg, po measured up to 24 hrs by LC-MS/MS analysis. Type of data set: ADME, organism-based. On the set-up: route oral, dose 10 mg/kg, time <=24. The settings on record: in vivo.
A short description of data set [18]: AUC (0 to infinity) in Sprague-Dawley rat at 10 mg/kg, po measured up to 24 hrs by LC-MS/MS analysis. Type of data set: ADME, organism-based. The settings on record: in vivo. On the set-up: route oral, dose 10 mg/kg, time <=24.
Data set [19] can be described thus: MRT (0 to infinity) in Sprague-Dawley rat at 10 mg/kg, po measured up to 24 hrs by LC-MS/MS analysis. The settings on record: in vivo. It counts as ADME, organism-based.
The nature of data set [20]: Drug level in ICR mouse plasma at 10 mg/kg, po measured after 1 hr by LC/MS/MS analysis. Type of data set: ADME, organism-based.
Data set [21] in a line: Ratio of drug level in brain to plasma of ICR mouse at 10 mg/kg, po measured after 1.5 hrs by LC/MS/MS analysis. It counts as ADME, organism-based. As to conditions: brain and plasma.
Data set [22] is described as follows: Half life in Sprague-Dawley rat at 10 mg/kg, po measured up to 24 hrs by LC-MS/MS analysis. The settings on record: in vivo. It counts as ADME, organism-based.
Data set [23] in a line: Effective permeability of the compound by PAMPA-BBB assay. Type of data set: ADME. The settings on record: read-out: Peff.
A short description of data set [24]: Half life in Sprague-Dawley rat at 1 mg/kg, iv measured up to 24 hrs by LC-MS/MS analysis. Type of data set: ADME, organism-based. As to conditions: in vivo.

Regarding `O=C(Nc1cncc(OCC2CCN(Cc3ccccc3)CC2)c1)c1ccnc(NC(=O)C2CC2)c1`, in data set [1], the Kp at 1 h was 0.306. In [2], the Activity worked out at 66%. Further, the MRT inf in [3] turned out to be 10 h; in [19], 8.9 h. Besides, the IC50 in [4] turned out to be 1.6 nM; in [5], 2.6 nM; in [6] it was 23 nM. The figures for the AUC(0-inf) in [7] and in data set [18] were 152 ng·h/mL and 377 ng·h/mL, respectively. The inhibition in [8] came out at 48.3%; in [12], 73.1%. The Cmax in data set [9] was 98.3 ng/mL; in [17], 47.1 ng/mL. Further, the result in data set [10] was Active. In addition, the concentration at 1.5 h in data set [11] came to 62.9 ng/g; in data set [15], 43.7 ng/g. Also, the concentration at 1 h in data set [13] came to 34.4 ng/g; in data set [20] it was 112 ng/g. Also, the Tmax in [14] came out at 1.7 h. Also, in data set [16], the bioavailability came to 24.8%. Moreover, in data set [21], the Kp at 1.5 h was found to be 0.695. The values for the half-life in [22] and in data set [24] were 6.3 h and 21.4 h, respectively. The Papp in data set [23] is 8.2 ×10⁻⁶ cm/s.
